Series [1] concerns the target T1, recombinant human transglutaminase 2 (Homo sapiens, UniProt P21980).
T1 sequence (P21980 1-687): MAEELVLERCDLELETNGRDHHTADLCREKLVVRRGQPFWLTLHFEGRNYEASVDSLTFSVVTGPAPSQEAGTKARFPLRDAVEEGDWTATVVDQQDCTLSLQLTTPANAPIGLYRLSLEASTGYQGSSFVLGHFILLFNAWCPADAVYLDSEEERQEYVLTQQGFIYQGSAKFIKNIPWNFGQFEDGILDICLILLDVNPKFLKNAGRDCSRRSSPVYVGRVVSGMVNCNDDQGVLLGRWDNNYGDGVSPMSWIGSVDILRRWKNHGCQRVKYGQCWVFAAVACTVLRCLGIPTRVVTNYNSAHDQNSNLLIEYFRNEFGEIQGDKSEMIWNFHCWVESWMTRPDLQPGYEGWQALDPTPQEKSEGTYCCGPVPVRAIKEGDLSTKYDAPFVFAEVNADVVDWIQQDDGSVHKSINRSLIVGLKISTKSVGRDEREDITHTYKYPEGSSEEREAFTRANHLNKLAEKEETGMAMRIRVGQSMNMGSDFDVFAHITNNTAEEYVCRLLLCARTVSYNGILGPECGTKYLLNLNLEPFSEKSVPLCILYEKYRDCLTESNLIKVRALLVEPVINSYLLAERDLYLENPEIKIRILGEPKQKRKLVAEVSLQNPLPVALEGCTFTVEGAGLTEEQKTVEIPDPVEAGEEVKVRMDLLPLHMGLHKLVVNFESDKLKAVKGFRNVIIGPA
The series is described as follows: Transglutaminase assay: incorporation of dansylcadaverine into dimethylcasein (DCC-assay). The format is biochemical. As to conditions: recombinant human TG2 10 nM, dansylcadaverine/dimethylcasein; read-out: IC50 TG2. The essentials:
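Recombinant human TG2 (10 nM final) incorporates dansylcadaverine (16.7 μM) into N,N-dimethylcasein (4 μM) in Tris-HCl buffer, pH 8.0, with 10 mM CaCl2 and 10 mM glutathione. Fluorescence (λex 330, λem 500 nm) followed 30 min. The slope between 20–30 min gives activity versus DMSO control, and IC50 comes from the concentration–activity plot.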

Series [2] in a line: Log D by shake flask method (octanol / PBS pH 7.4, HPLC). The format is physicochemical. As to conditions: octanol / PBS pH 7.4, shake flask; read-out: logD. The essentials:
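Shake-flask partitioning of compound between octanol and PBS at pH 7.4, with phase concentrations quantified by HPLC. The value reported is Log D.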

Series [3] in a line: Caco-2 permeability assay (CacoReady kit). The class given is in vitro ADME. As to conditions: human. The essentials:
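Apparent permeability coefficients (Papp) were measured across Caco-2 cell barriers using a ready-to-use kit run per the supplier's protocol. Values serve as a predictor of oral/intestinal bioavailability.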

The structures appear in SMILES notation.

IC50, logD and Papp data for 17 molecules are collected here from patent US20240270715A1, “INHIBITORS OF TRANSGLUTAMINASES” (ZEDIRA GMBH, priority 2021, published 2024).

As for `CCNC(=O)C(=O)CC[C@H](NC(=O)c1nccn1C)C(=O)Nc1cccn(CC(=O)NC23CC4CC(CC(CC)(C4)C2)C3)c1=O` [Compound I-16, (S)-N1-ethyl-N6-(1-(2-(3-ethyladamantane-1-amino)-2-oxoethyl)-2-oxo-1,2-dihydropyridin-3-yl)-5-(1-methyl-1H-imidazole-2-carboxamido)-2-oxohexanediamide], in series [1], the IC50 was in the range of 600 to 3500 nM. In series [2], the logD lay within 1 to 3. Besides, in series [3], the apparent permeability coefficient (Papp) is < 1 ×10⁻⁶ cm/s.

Regarding `CCNC(=O)C(=O)CC[C@H](NC(=O)c1cn[nH]n1)C(=O)Nc1cccn(CC(=O)NC2CC3CCC2CC3)c1=O` (stereo partly drawn) [Compound I-74, (2S)-N1-(1-(2-(bicyclo[2.2.2]octan-2-ylamino)-2-oxoethyl)-2-oxo-1,2-dihydropyridin-3-yl)-N6-ethyl-5-oxo-2-(2H-1,2,3-triazole-4-carboxamido)hexanediamide], the IC50 in series [1] lay in the range of 150 to 600 nM. Besides, the log distribution coefficient (logD) in series [2] was < 1. Moreover, the Papp in series [3] was < 1 ×10⁻⁶ cm/s.

Regarding `CCNC(=O)C(=O)CC[C@H](NC(=O)c1snnc1C1CC1)C(=O)Nc1cccn(CC23CC4CC(CC(O)(C4)C2)C3)c1=O` [Compound I-82, (S)-N1-(1-((3-hydroxy-1-adamantyl)methyl)-2-oxo-1,2-dihydropyridin-3-yl)-2-(4-cyclopropyl-1,2,3-thiadiazole-5-carboxamido)-N6-ethyl-5-oxohexanediamide], the concentration for half-maximal inhibition (IC50) in series [1] was 150 to 600 nM. Further, the pH-dependent lipophilicity (logD) in series [2] was < 1. The apparent permeability (Papp) in series [3] was < 1 ×10⁻⁶ cm/s.

Regarding `CCNC(=O)C(=O)CC[C@H](NC(=O)c1snnc1CO)C(=O)Nc1cccn(CC2C3CC4CC(C3)CC2C4)c1=O` (stereo partly drawn) [Compound I-84, (S)-N1-(1-(2-adamantylmethyl)-2-oxo-1,2-dihydropyridin-3-yl)-N6-ethyl-2-(4-(hydroxymethyl)-1,2,3-thiadiazole-5-carboxamido)-5-oxohexanediamide], the IC50 in series [1] is 150 to 600 nM. The pH-dependent lipophilicity (logD) in series [2] fell in the range of 1 to 3. For the same molecule, the Papp in series [3] was < 1 ×10⁻⁶ cm/s.

Take `CCNC(=O)C(=O)CC[C@H](NC(=O)c1cncc([N+](=O)[O-])c1)C(=O)Nc1cccn(CC(=O)NCC23CC4CC(CC(C4)C2)C3)c1=O` [Compound I-65, (S)-N1-(1-(2-(1-adamantylmethylamino)-2-oxoethyl)-2-oxo-1,2-dihydropyridin-3-yl)-N6-ethyl-2-(5-nitronicotinamido)-5-oxohexanediamide]: the concentration for half-maximal inhibition (IC50) in series [1] is < 150 nM. In addition, in series [2], the logD lay within 1 to 3. The Papp in series [3] was in the range of 1 to 10 ×10⁻⁶ cm/s.

Turning to `CCNC(=O)C(=O)CC[C@H](NC(=O)c1cncn1C)C(=O)Nc1cccn(CC(=O)NC23CC4CC(CC(CC)(C4)C2)C3)c1=O` [Compound I-5, (S)-N1-ethyl-N6-(1-(2-(3-ethyladamantane-1-amino)-2-oxoethyl)-2-oxo-1,2-dihydropyridin-3-yl)-5-(1-methyl-1H-imidazole-5-carboxamido)-2-oxohexanediamide], the IC50 in series [1] lay in the range of 150 to 600 nM. In series [2], the logD fell in the range of 1 to 3. In addition, the Papp in series [3] is < 1 ×10⁻⁶ cm/s.

As to `CCNC(=O)C(=O)CC[C@H](NC(=O)c1c[nH]c(C(N)=O)c1)C(=O)Nc1cccn(CC(=O)NC23CC(C2)C3)c1=O` [Compound I-111, (S)-N4-(1-(1-(2-(bicyclo[1.1.1]pentan-1-ylamino)-2-oxoethyl)-2-oxo-1,2-dihydropyridin-3-ylamino)-6-(ethylamino)-1,5,6-trioxohexan-2-yl)-1H-pyrrole-2,4-dicarboxamide], the IC50 in series [1] fell in the range of 600 to 3500 nM. Moreover, in series [2], the logD is < 1. For the same molecule, in series [3], the apparent permeability (Papp) was < 1 ×10⁻⁶ cm/s.

Take `CCNC(=O)C(=O)CC[C@H](NC(=O)c1cc(C)oc1C)C(=O)Nc1cccn(CC(=O)NC2C3CC4CC(C3)CC2C4)c1=O` (stereo partly drawn) [Compound I-49, (S)-2-(2,5-dimethylfuran-3-carboxamido)-N6-ethyl-N1-(1-(2-(2-adamantylamino)-2-oxoethyl)-2-oxo-1,2-dihydropyridin-3-yl)-5-oxohexanediamide]: in series [1], the IC50 was < 150 nM. Also, the pH-dependent lipophilicity (logD) in series [2] lay within 1 to 3. Besides, the apparent permeability (Papp) in series [3] was in the range of 1 to 10 ×10⁻⁶ cm/s.

In the case of `CCNC(=O)C(=O)CC[C@H](NC(=O)c1c[nH]cn1)C(=O)Nc1cccn(CC(=O)NC23CC4CC(CC(C4)C2)C3)c1=O` [Compound I-2, (S)-N1-ethyl-5-(1H-imidazole-4-carboxamido)-N6-(1-(2-(1-adamantylamino)-2-oxoethyl)-2-oxo-1,2-dihydropyridin-3-yl)-2-oxohexanediamide], in series [1], the IC50 lay in the range of 600 to 3500 nM. The logD in series [2] was < 1. Moreover, the apparent permeability coefficient (Papp) in series [3] was < 1 ×10⁻⁶ cm/s.

Turning to `CCNC(=O)C(=O)CC[C@H](NC(=O)c1ccc2ccoc2c1)C(=O)Nc1cccn(CC(=O)NC2C3CC4CC2CC(C(N)=O)(C4)C3)c1=O` (stereo partly drawn) [Compound I-114, (S)-2-(benzofuran-6-carboxamido)-N6-ethyl-N1-(1-(2-(4-aminoadamantane-1-carboxamide)-2-oxoethyl)-2-oxo-1,2-dihydropyridin-3-yl)-5-oxohexanediamide], the IC50 in series [1] lay in the range of 150 to 600 nM. In series [2], the logD is < 1. The Papp in series [3] was < 1 ×10⁻⁶ cm/s.

For `CCNC(=O)C(=O)CC[C@H](NC(=O)c1cncn1C)C(=O)Nc1cccn(CC(=O)NC23CC4CC(CC(Cl)(C4)C2)C3)c1=O` [Compound I-9, (S)-N1-ethyl-N6-(1-(2-(3-chloroadamantane-1-amino)-2-oxoethyl)-2-oxo-1,2-dihydropyridin-3-yl)-5-(1-methyl-1H-imidazole-5-carboxamido)-2-oxohexanediamide], in series [1], the IC50 fell in the range of 150 to 600 nM. In addition, the logD in series [2] is < 1. Also, the Papp in series [3] is < 1 ×10⁻⁶ cm/s.

Take `CCNC(=O)C(=O)CC[C@H](NC(=O)c1cncn1C)C(=O)Nc1cccn(CC(=O)NC23CC4CC(C2)CC(C(F)(F)F)(C4)C3)c1=O` [Compound I-6, (S)-N1-ethyl-N6-(1-(2-(3-trifluoromethyladamantane-1-amino)-2-oxoethyl)-2-oxo-1,2-dihydropyridin-3-yl)-5-(1-methyl-1H-imidazole-5-carboxamido)-2-oxohexanediamide]: the IC50 in series [1] fell in the range of 150 to 600 nM. For the same molecule, in series [2], the logD is < 1. In addition, the Papp in series [3] is < 1 ×10⁻⁶ cm/s.

For the molecule `CCNC(=O)C(=O)CC[C@H](NC(=O)c1cnccn1)C(=O)Nc1cccn(CC(=O)NC2C3CC4CC2CC(O)(C4)C3)c1=O` (stereo partly drawn) [Compound I-58, (S)-N1-ethyl-N6-(1-(2-(5-hydroxyadamantane-2-amino)-2-oxoethyl)-2-oxo-1,2-dihydropyridin-3-yl)-2-oxo-5-(pyrazine-2-carboxamido)hexanediamide], in series [1], the 50% inhibitory concentration (IC50) was 150 to 600 nM. The pH-dependent lipophilicity (logD) in series [2] is < 1. Moreover, in series [3], the Papp is < 1 ×10⁻⁶ cm/s.

Turning to `CCNC(=O)C(=O)CC[C@H](NC(=O)c1cc(Br)c(Br)s1)C(=O)Nc1cccn(CC(=O)NC2C3CC4CC(C3)CC2C4)c1=O` (stereo partly drawn) [Compound I-53, (S)-2-(4,5-dibromothiophene-2-carboxamido)-N6-ethyl-N1-(1-(2-(2-adamantylamino)-2-oxoethyl)-2-oxo-1,2-dihydropyridin-3-yl)-5-oxohexanediamide], the IC50 in series [1] was < 150 nM. In series [2], the logD lay within 3 to 5. Further, the Papp in series [3] lay in the range of 1 to 10 ×10⁻⁶ cm/s.

In the case of `CCNC(=O)C(=O)CC[C@H](NC(=O)c1cc2cccc(F)c2s1)C(=O)Nc1cccn(CC(=O)NC2C3CC4CC(C3)CC2C4)c1=O` (stereo partly drawn) [Compound I-35, (S)-N1-ethyl-5-(7-fluorobenzo[b]thiophene-2-carboxamido)-N6-(1-(2-(2-adamantylamino)-2-oxoethyl)-2-oxo-1,2-dihydropyridin-3-yl)-2-oxohexanediamide], in series [1], the half-inhibitory concentration (IC50) is < 150 nM. Further, the logD in series [2] lay within 3 to 5. For the same molecule, the Papp in series [3] lay in the range of 1 to 10 ×10⁻⁶ cm/s.

`CCNC(=O)C(=O)CC[C@H](NC(=O)c1oc2ccccc2c1CC)C(=O)Nc1cccn(CC(=O)NC23CC(C2)C3)c1=O` [Compound I-101, (S)-N1-(1-(2-(bicyclo[1.1.1]pentan-1-ylamino)-2-oxoethyl)-2-oxo-1,2-dihydropyridin-3-yl)-N6-ethyl-2-(3-ethylbenzofuran-2-carboxamido)-5-oxohexanediamide]: the IC50 in series [1] lay in the range of 150 to 600 nM. Further, in series [2], the logD was < 1. Also, in series [3], the apparent permeability (Papp) was 1 to 10 ×10⁻⁶ cm/s.

On to `CCNC(=O)C(=O)CC[C@H](NC(=O)c1cnc(Cl)n1C)C(=O)Nc1cccn(CC(=O)NC23CC4CC(C)(CC(C)(C4)C2)C3)c1=O` [Compound I-26, (S)-2-(2-chloro-1-methyl-1H-imidazole-5-carboxamido)-N6-ethyl-N1-(1-(2-(3,5-dimethyladamantane-1-amino)-2-oxoethyl)-2-oxo-1,2-dihydropyridin-3-yl)-5-oxohexanediamide], for which the half-inhibitory concentration (IC50) in series [1] lay within 150 to 600 nM. Further, the logD in series [2] lay in the range of 1 to 3. For the same molecule, in series [3], the Papp is < 1 ×10⁻⁶ cm/s.

The IC50 is the concentration needed to halve the response being measured. Usually logD stands for the decadic logarithm of the distribution of all forms, ionised or not, between an organic phase and buffer at a given pH. In general, Papp refers to a coefficient for how fast a substance crosses the barrier.
